Measurements reported in PMC3784060 (Cancer Chemotherapy and Pharmacology, 2013).
Where “and” joins values, the source holds several entries; their conditions need not be identical. Equal entries are not always repeated.

What was measured:
[1] = system: relapsed/refractory AML and ALL; assay: phase II study in acute leukemia: response, blast/WBC reduction, time to progression; format: in vivo, human; conditions: for median WBC count: pretreatment 2,650
Experimental: (§1) Each cycle lasted 21 days. Patient could continue treatment on the study in the absence of disease progression or unacceptable toxicity. The next cycle of therapy could start if non-hematologic toxicity from previous cycle recovered to ≤grade 1, and dose delay of up to 3 weeks was allowed for recovery. Permanent dose reduction was required for any ≥grade 3 clinically significant non-hematologic adverse event (70 mg/m^2 → 50 mg/m^2; 50 mg/m^2 → 40 mg/m^2; 40 mg/m^2 → 30 mg/m^2; 30 mg/m^2 → discontinue). To allow for continued treatment of subjects whose cytopenias were due to leukemia and not due to drug toxicity, subsequent cycles of treatment were allowed if absolute neutrophil count (ANC) ≥0.5 × 10^9/L or for ANC <0.5 × 10^9/L but no more than 20 % below the baseline pretreatment levels and platelet count ≥20 × 10^9/L or platelets <20 × 10^9/L but no more than 20 % below the baseline pretreatment levels. Anti-emetic prophylaxis including serotonin-receptor antagonist, metoclopramide, or prochloperazine with or without dexamethasone was allowed. […] Dexamethasone 20 mg IV was given early if symptoms of cytokine release syndrome were observed.
(§2) Response was assessed by bone marrow (BM) examination on day 21 of cycles 1 and 2, and every 6 weeks thereafter until complete remission or progressive disease (PD). Response was determined according to the revised recommendations of the International Working Group (IWG) for AML [33]. Toxicities were graded according to the National Cancer Institute Common Terminology Criteria for Adverse Events (NCI CTCAE), version 3.0 (http://ctep.cancer.gov/protocolDevelopment/electronic_applications/docs/ctcaev3.pdf). Hematologic and chemistry profiles were monitored on day 1 and 2 of each cycle or until resolution of acute toxicities and subsequently at least once a week or more frequently depending on the individual patient’s needs.
The primary efficacy endpoint of the study was the ORR, including complete remission (CR), CR with incomplete count recovery (CRi), and partial remission.

[2] = phase II study in acute leukemia: toxicity (NCI CTCAE version 3.0); format: in vivo, human
Experimental: The study was approved by the Institutional Review Board (IRB) at each participating institution and was conducted in accordance with the Declaration of Helsinki and in compliance with International Conference on Harmonization Good Clinical Practice Guidelines. Written informed consent was obtained from all patients before study enrollment.
as §1, §2

[3] = 13 patients with circulating blasts, within 1–8 days of first dose
[4] = AML patients, all treated subjects
[5] = patients with circulating blasts

In the case of `CCc1cnn2c(NCc3ccc[n+]([O-])c3)cc(N3CCCC[C@H]3CCO)nc12` [Dinaciclib], the “objective responses by IWG criteria” value ([1]; 50 mg/m^2 2-h infusion every 21 days, 20 patients) is reported as “No objective responses”, the “average reduction in BM blasts” value ([1]; 8 of 13 patients with follow-up BM evaluations) is reported as 36% and the “patients with >50 % decrease in absolute blast count (ABC)” value [1, 3] is reported as 77%. For the same compound, the “patients with >80 % decrease in absolute blast count (ABC)” value [1, 3] was 46%, the TTP ([1]; ALL patients) was 1 to 8.14 weeks and the “median TTP” value ([1]; AML patients included in the initial randomization) was 5.14 weeks. For the same compound, the “Beta Posterior Mean (Bayes estimate of the response rate)” value [1, 4] was 0.071, the “Difference in observed response rate (SCH727965 - Mylotarg)” value [1, 4] was -12.500% and the “Number of Non-responders” value [1, 4] was 12. The “Number of Responders” value [1, 4] was 0, the “Posterior Probability (This treatment is better)” value [1, 4] was 0.200 and the “Observed Response Rate (%)” value ([1]; AML patients, all treated subjects, frequentist approach) was 0.000%. For the same compound, the “Median time to progression, Estimate” value ([1]; all treated AML patients) was 5.14 weeks, the “Number of Events (progression)” value ([1]; all treated AML patients) was 10 and the “median WBC count” value ([1]; day 2) was 1,045 × 10^6/L. The “median WBC count” value ([1]; day 8) was 1,350 × 10^6/L, the “median duration of the WBC nadir” value ([1]; in vivo) was 5 days and the “patients with temporary decrease in PB and/or marrow blasts” value ([1]; in vivo) was 60%. For the same compound, the “duration of ABC nadir” value [1, 5] was 7 days, the “median time to ABC nadir” value [1, 5] was 3 days and the “median ABC nadir” value ([1]; patients with circulating blasts, pre-treatment 1,130) was 2e+08 L⁻¹. For the same compound, the TTP ([1]; two AML patients who crossed over from GO, individual values) was 7.86 weeks and 9.14 weeks, the “Grade ≥3 fatigue, patients” value ([2]; 4 patients) was 20% and the “patients with grade ≥3 treatment-related adverse events” value ([2]; 15 of 20 patients) was 75%. For the same compound, the “TLS-associated hyperkalemia, patients” value ([2]; Cairo-Bishop criteria, cycle 1) was 25%, the “TLS-associated hyperphosphatemia, patients” value ([2]; Cairo-Bishop criteria, cycle 1) was 30% and the “TLS-associated hyperuricemia, patients” value ([2]; Cairo-Bishop criteria, cycle 1) was 10%. The “TLS-associated hypocalcemia, patients” value ([2]; Cairo-Bishop criteria, cycle 1) was 25%, the “patients with at least one significant TLS-associated laboratory abnormality” value ([2]; Cairo-Bishop criteria, cycle 1) was “half of the patients” and the “Acute renal failure, All (%)” value ([2]; Cycle 1 n = 20) was 2 (10) patients (%). For the same compound, the “Acute renal failure, Grade ≥3” value ([2]; Cycle 1 n = 20) was 2 patients, the “Anorexia, All (%)” value ([2]; Cycle 1 n = 20) was 1 (5) patients (%) and the “Bacteremia, All (%)” value ([2]; Cycle 1 n = 20) was 2 (10) patients (%). For the same compound, the “Bacteremia, Grade ≥3” value ([2]; Cycle 1 n = 20) was 2 patients, the “Cytokine release sy, All (%)” value ([2]; Cycle 1 n = 20) was 2 (10) patients (%) and the “Dehydration, All (%)” value ([2]; Cycle 1 n = 20) was 1 (5) patients (%). The “Dehydration, Grade ≥3” value ([2]; Cycle 1 n = 20) was 1 patients, the “Diarrhea, All (%)” value ([2]; Cycle 1 n = 20) was 14 (70) patients (%) and the “Diarrhea, Grade ≥3” value ([2]; Cycle 1 n = 20) was 1 patients. For the same compound, the “Fatigue, All (%)” value ([2]; Cycle 1 n = 20) was 6 (30) patients (%), the “Fatigue, Grade ≥3” value ([2]; Cycle 1 n = 20) was 2 patients and the “Hyperbilirubinemia, All (%)” value ([2]; Cycle 1 n = 20) was 2 (10) patients (%). For the same compound, the “Hyperglycemia, All (%)” value ([2]; Cycle 1 n = 20) was 4 (20) patients (%), the “Hyperglycemia, Grade ≥3” value ([2]; Cycle 1 n = 20) was 2 patients and the “Hyperkalemia, All (%)” value ([2]; Cycle 1 n = 20) was 3 (15) patients (%). The “Hyperkalemia, Grade ≥3” value ([2]; Cycle 1 n = 20) was 2 patients, the “Hyperphosphatemia, All (%)” value ([2]; Cycle 1 n = 20) was 5 (25) patients (%) and the “Hyperphosphatemia, Grade ≥3” value ([2]; Cycle 1 n = 20) was 1 patients. For the same compound, the “Hypertension, All (%)” value ([2]; Cycle 1 n = 20) was 1 (5) patients (%), the “Hypoalbuminemia, All (%)” value ([2]; Cycle 1 n = 20) was 4 (20) patients (%) and the “Hypocalcemia, All (%)” value ([2]; Cycle 1 n = 20) was 6 (30) patients (%). The “Hypocalcemia, Grade ≥3” value ([2]; Cycle 1 n = 20) was 1 patients, the “Hypokalemia, All (%)” value ([2]; Cycle 1 n = 20) was 2 (10) patients (%) and the “Hyponatremia, All (%)” value ([2]; Cycle 1 n = 20) was 2 (10) patients (%). The “Hyponatremia, Grade ≥3” value ([2]; Cycle 1 n = 20) was 1 patients, the “Hypotension, All (%)” value ([2]; Cycle 1 n = 20) was 6 (30) patients (%) and the “Hypotension, Grade ≥3” value ([2]; Cycle 1 n = 20) was 1 patients. For the same compound, the “Increased ALT, All (%)” value ([2]; Cycle 1 n = 20) was 4 (20) patients (%), the “Increased AST, All (%)” value ([2]; Cycle 1 n = 20) was 8 (40) patients (%) and the “Increased AST, Grade ≥3” value ([2]; Cycle 1 n = 20) was 3 patients. For the same compound, the “Increased LDH, All (%)” value ([2]; Cycle 1 n = 20) was 2 (10) patients (%), the “Increased LDH, Grade ≥3” value ([2]; Cycle 1 n = 20) was 2 patients and the “Increased creatinine, All (%)” value ([2]; Cycle 1 n = 20) was 3 (15) patients (%). The “Increased creatinine, Grade ≥3” value ([2]; Cycle 1 n = 20) was 1 patients.
